Assay results taken from BindingDB's records for doi:10.1021/jm061152t (Abbott Laboratories, 2007).
Where “and” joins values, the source holds several entries; their conditions need not be identical. Equal entries are not always repeated.

Key:
[1] = target: Apoptosis regulator Bcl-2 (Homo sapiens, UniProt P10415); assay: Fluorescence Polarization Assay and FL5.12 Cellular Assay
Description: (§1) The binding affinities (Ki) of compounds were determined using fluorescence polarization assays (FPA) that measure their ability to competitively displace a Bad-derived peptide from Bcl-xL. Compound efficacy (EC50) in a cellular context was evaluated by testing their ability to reverse the protection from cytokine withdrawal afforded by overexpression of Bcl-xL in the IL-3 dependent murine pro-B cell line FL5.12.

Bcl-2-like protein 1 [2] = target: T1, Bcl-2-like protein 1 (Homo sapiens, UniProt Q07817); assay: Fluorescence Polarization (FP) Assay and FL5.12 Cellular Assay; conditions: pH 7.4; 25 °C
Description: as §1, with “Bcl-xL. […]” for “Bcl-xL.”

[3] = The binding affinities (Ki) of compounds were determined using fluorescence polarization assays (FPA) that measure their ability to competitively displace a Bad-derived peptide from Bcl-xL. Compound efficacy (EC50) in a cellular context was evaluated by testing their ability to reverse the protection from cytokine w
[4] = The binding affinities (Ki) of compounds were determined using fluorescence polarization assays (FPA) that measure their ability to competitively displace a Bad-derived peptide from Bcl-xL. IC50 values were binding affinities measured in the presence of 10% human serum. Compound efficacy (EC50) in a cellular co; conditions: pH 7.4
Bcl-2-like protein 1 [5] = target: T1, Bcl-2-like protein 1; assay: Fluorescence Polarization Assay and FL5.12 Cellular Assay
Description: as §1

T1 sequence (Q07817 whole entry): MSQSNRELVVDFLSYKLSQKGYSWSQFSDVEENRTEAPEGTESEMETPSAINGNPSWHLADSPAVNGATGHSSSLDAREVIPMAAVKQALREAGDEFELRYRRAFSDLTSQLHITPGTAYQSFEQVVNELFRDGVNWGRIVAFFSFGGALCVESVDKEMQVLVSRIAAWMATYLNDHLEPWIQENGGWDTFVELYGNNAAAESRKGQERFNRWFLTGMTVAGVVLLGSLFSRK
Apoptosis regulator Bcl-2, sequence (P10415 whole entry): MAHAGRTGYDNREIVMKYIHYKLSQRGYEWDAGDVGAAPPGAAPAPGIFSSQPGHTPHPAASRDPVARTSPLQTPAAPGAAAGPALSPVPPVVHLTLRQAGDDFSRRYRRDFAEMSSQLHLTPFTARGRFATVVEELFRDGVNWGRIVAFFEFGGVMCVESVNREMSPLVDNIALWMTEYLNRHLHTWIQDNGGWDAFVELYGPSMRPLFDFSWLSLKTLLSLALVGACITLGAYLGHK

EC50 [3]	EC50 [4] [nM]	Compound	other results
–	–	CCCCC1(OC)CCN(c2ccc(C(=O)NS(=O)(=O)c3ccc(N[C@H](CCN(C)C)CSc4ccccc4)c([N+](=O)[O-])c3)cc2)CC1 [4-(4-butyl-4-methoxypiperidin-1-yl)-N-[(4-{[(2R)-4-(dimethylamino)-1-(phenylsulfanyl)butan-2-yl]amino}-3-nitrobenzene)sulfonyl]benzamide]	EC50 [1]: 3000 nM; Ki [1]: 20 nM; EC50 (Bcl-2-like protein 1 [2]): 8000 nM; IC50 (Bcl-2-like protein 1 [2]): 312 nM; Ki (Bcl-2-like protein 1 [2]): 1.3 nM
300 nM	250	COC1(Cc2cccc(Cl)c2)CCN(c2ccc(C(=O)NS(=O)(=O)c3ccc(N[C@H](CCN(C)C)CSc4ccccc4)c([N+](=O)[O-])c3)cc2)CC1 [4-{4-[(3-chlorophenyl)methyl]-4-methoxypiperidin-1-yl}-N-[(4-{[(2R)-4-(dimethylamino)-1-(phenylsulfanyl)butan-2-yl]amino}-3-nitrobenzene)sulfonyl]benzamide]	–
500 nM	400	COC1(Cc2ccc(Cl)cc2)CCN(c2ccc(C(=O)NS(=O)(=O)c3ccc(N[C@H](CCN(C)C)CSc4ccccc4)c([N+](=O)[O-])c3)cc2)CC1 [4-{4-[(4-chlorophenyl)methyl]-4-methoxypiperidin-1-yl}-N-[(4-{[(2R)-4-(dimethylamino)-1-(phenylsulfanyl)butan-2-yl]amino}-3-nitrobenzene)sulfonyl]benzamide]	–
1180 nM	620	CN(C)CC[C@H](CSc1ccccc1)Nc1ccc(S(=O)(=O)NC(=O)c2ccc(N3CCC(=Cc4ccc(Cl)cc4)CC3)cc2)cc1[N+](=O)[O-] [4-{4-[(4-chlorophenyl)methylidene]piperidin-1-yl}-N-[(4-{[(2R)-4-(dimethylamino)-1-(phenylsulfanyl)butan-2-yl]amino}-3-nitrobenzene)sulfonyl]benzamide]	–
460 nM and 530 nM	–	CN(C)CC[C@H](CSc1ccccc1)Nc1ccc(S(=O)(=O)NC(=O)c2ccc(N3CCN(Cc4ccccc4-c4ccc(S(C)(=O)=O)cc4)CC3)cc2)cc1[N+](=O)[O-] [N-[(4-{[(2R)-4-(dimethylamino)-1-(phenylsulfanyl)butan-2-yl]amino}-3-nitrobenzene)sulfonyl]-4-(4-{[2-(4-methanesulfonylphenyl)phenyl]methyl}piperazin-1-yl)benzamide]	Ki (Bcl-2-like protein 1 [5]): 9.1 nM
210 nM	150	CN(C)CC[C@H](CSc1ccccc1)Nc1ccc(S(=O)(=O)NC(=O)c2ccc(N3CCC(=Cc4ccccc4C(F)(F)F)CC3)cc2)cc1[N+](=O)[O-] [N-[(4-{[(2R)-4-(dimethylamino)-1-(phenylsulfanyl)butan-2-yl]amino}-3-nitrobenzene)sulfonyl]-4-(4-{[2-(trifluoromethyl)phenyl]methylidene}piperidin-1-yl)benzamide]	–
3600 nM	2600	CN(C)CC[C@H](CSc1ccccc1)Nc1ccc(S(=O)(=O)NC(=O)c2ccc(N3CCC(=Cc4ccc(C(F)(F)F)cc4)CC3)cc2)cc1[N+](=O)[O-] [N-[(4-{[(2R)-4-(dimethylamino)-1-(phenylsulfanyl)butan-2-yl]amino}-3-nitrobenzene)sulfonyl]-4-(4-{[4-(trifluoromethyl)phenyl]methylidene}piperidin-1-yl)benzamide]	–
1000 nM	750	COC1(CC(C)(C)C)CCN(c2ccc(C(=O)NS(=O)(=O)c3ccc(N[C@H](CCN(C)C)CSc4ccccc4)c([N+](=O)[O-])c3)cc2)CC1 [N-[(4-{[(2R)-4-(dimethylamino)-1-(phenylsulfanyl)butan-2-yl]amino}-3-nitrobenzene)sulfonyl]-4-[4-(2,2-dimethylpropyl)-4-methoxypiperidin-1-yl]benzamide]	–
700 nM	580	COC1(CC(C)C)CCN(c2ccc(C(=O)NS(=O)(=O)c3ccc(N[C@H](CCN(C)C)CSc4ccccc4)c([N+](=O)[O-])c3)cc2)CC1 [N-[(4-{[(2R)-4-(dimethylamino)-1-(phenylsulfanyl)butan-2-yl]amino}-3-nitrobenzene)sulfonyl]-4-[4-methoxy-4-(2-methylpropyl)piperidin-1-yl]benzamide]	–
100 nM	180	COC1(Cc2ccccc2F)CCN(c2ccc(C(=O)NS(=O)(=O)c3ccc(N[C@H](CCN(C)C)CSc4ccccc4)c([N+](=O)[O-])c3)cc2)CC1 [N-[(4-{[(2R)-4-(dimethylamino)-1-(phenylsulfanyl)butan-2-yl]amino}-3-nitrobenzene)sulfonyl]-4-{4-[(2-fluorophenyl)methyl]-4-methoxypiperidin-1-yl}benzamide]	–
350 nM	250	CN(C)CC[C@H](CSc1ccccc1)Nc1ccc(S(=O)(=O)NC(=O)c2ccc(N3CCC(=Cc4ccccc4F)CC3)cc2)cc1[N+](=O)[O-] [N-[(4-{[(2R)-4-(dimethylamino)-1-(phenylsulfanyl)butan-2-yl]amino}-3-nitrobenzene)sulfonyl]-4-{4-[(2-fluorophenyl)methylidene]piperidin-1-yl}benzamide]	–
250 nM	300	COc1ccccc1C=C1CCN(c2ccc(C(=O)NS(=O)(=O)c3ccc(N[C@H](CCN(C)C)CSc4ccccc4)c([N+](=O)[O-])c3)cc2)CC1 [N-[(4-{[(2R)-4-(dimethylamino)-1-(phenylsulfanyl)butan-2-yl]amino}-3-nitrobenzene)sulfonyl]-4-{4-[(2-methoxyphenyl)methylidene]piperidin-1-yl}benzamide]	–
250 nM	150	COc1ccccc1CC1(OC)CCN(c2ccc(C(=O)NS(=O)(=O)c3ccc(N[C@H](CCN(C)C)CSc4ccccc4)c([N+](=O)[O-])c3)cc2)CC1 [N-[(4-{[(2R)-4-(dimethylamino)-1-(phenylsulfanyl)butan-2-yl]amino}-3-nitrobenzene)sulfonyl]-4-{4-methoxy-4-[(2-methoxyphenyl)methyl]piperidin-1-yl}benzamide]	–
200 nM	150	COC1(Cc2ccccc2C)CCN(c2ccc(C(=O)NS(=O)(=O)c3ccc(N[C@H](CCN(C)C)CSc4ccccc4)c([N+](=O)[O-])c3)cc2)CC1 [N-[(4-{[(2R)-4-(dimethylamino)-1-(phenylsulfanyl)butan-2-yl]amino}-3-nitrobenzene)sulfonyl]-4-{4-methoxy-4-[(2-methylphenyl)methyl]piperidin-1-yl}benzamide]	–
20 nM	35	COC1(Cc2ccccc2-c2ccccc2)CCN(c2ccc(C(=O)NS(=O)(=O)c3ccc(N[C@H](CCN(C)C)CSc4ccccc4)c([N+](=O)[O-])c3)cc2)CC1 [N-[(4-{[(2R)-4-(dimethylamino)-1-(phenylsulfanyl)butan-2-yl]amino}-3-nitrobenzene)sulfonyl]-4-{4-methoxy-4-[(2-phenylphenyl)methyl]piperidin-1-yl}benzamide]	–
1100 nM	600	COC1(Cc2ccc(-c3ccccc3)cc2)CCN(c2ccc(C(=O)NS(=O)(=O)c3ccc(N[C@H](CCN(C)C)CSc4ccccc4)c([N+](=O)[O-])c3)cc2)CC1 [N-[(4-{[(2R)-4-(dimethylamino)-1-(phenylsulfanyl)butan-2-yl]amino}-3-nitrobenzene)sulfonyl]-4-{4-methoxy-4-[(4-phenylphenyl)methyl]piperidin-1-yl}benzamide]	–
